# How the values were obtained:
# IGF1R = IGF1R (Homo sapiens, UniProt P08069); test: spectrophotometric coupled-enzyme kinase inhibition assay; type: biochemical; details: read-out: Ki or IC50 IGF1R
# Protocol: (§1) Affinity was measured using a kinase inhibition assay. Compounds were assayed for the inhibition of various kinases using a modification of a spectrophotometric coupled-enzyme assay. In this assay, a fixed concentration of activated kinase (10–40 nM) was incubated with various concentrations of a potential inhibitor dissolved in DMSO for 10 minutes at 30°C in a buffer containing 0.1 M HEPES, pH 7.5, containing 10 mM MgCl2, 2.5 mM phosphoenolpyruvate, 200 µM NADH, 2 mM DTT, 30 µg/mL pyruvate kinase, 10 µg/mL lactate dehydrogenase, and 200 µM–500 µM EGF receptor peptide. The EGF receptor peptide has the sequence […]. The reaction was initiated by the addition of ATP equal to the ATP Km of the kinase, and the assay plate is inserted into the spectrophotometer’s assay plate compartment that was maintained at 30°C. The decrease of absorbance at 340 nm was monitored as a function of time for 10 minutes. The rate data as a function of inhibitor concentration was either fit as an IC50 or to a competitive inhibition kinetic model to determine the compound Ki (see table 1).
# JAK3 = target: T1, JAK3 (Homo sapiens, UniProt P52333); test: as above; type: biochemical; details: read-out: Ki or IC50 JAK3
# T1 sequence (P52333 1-1124): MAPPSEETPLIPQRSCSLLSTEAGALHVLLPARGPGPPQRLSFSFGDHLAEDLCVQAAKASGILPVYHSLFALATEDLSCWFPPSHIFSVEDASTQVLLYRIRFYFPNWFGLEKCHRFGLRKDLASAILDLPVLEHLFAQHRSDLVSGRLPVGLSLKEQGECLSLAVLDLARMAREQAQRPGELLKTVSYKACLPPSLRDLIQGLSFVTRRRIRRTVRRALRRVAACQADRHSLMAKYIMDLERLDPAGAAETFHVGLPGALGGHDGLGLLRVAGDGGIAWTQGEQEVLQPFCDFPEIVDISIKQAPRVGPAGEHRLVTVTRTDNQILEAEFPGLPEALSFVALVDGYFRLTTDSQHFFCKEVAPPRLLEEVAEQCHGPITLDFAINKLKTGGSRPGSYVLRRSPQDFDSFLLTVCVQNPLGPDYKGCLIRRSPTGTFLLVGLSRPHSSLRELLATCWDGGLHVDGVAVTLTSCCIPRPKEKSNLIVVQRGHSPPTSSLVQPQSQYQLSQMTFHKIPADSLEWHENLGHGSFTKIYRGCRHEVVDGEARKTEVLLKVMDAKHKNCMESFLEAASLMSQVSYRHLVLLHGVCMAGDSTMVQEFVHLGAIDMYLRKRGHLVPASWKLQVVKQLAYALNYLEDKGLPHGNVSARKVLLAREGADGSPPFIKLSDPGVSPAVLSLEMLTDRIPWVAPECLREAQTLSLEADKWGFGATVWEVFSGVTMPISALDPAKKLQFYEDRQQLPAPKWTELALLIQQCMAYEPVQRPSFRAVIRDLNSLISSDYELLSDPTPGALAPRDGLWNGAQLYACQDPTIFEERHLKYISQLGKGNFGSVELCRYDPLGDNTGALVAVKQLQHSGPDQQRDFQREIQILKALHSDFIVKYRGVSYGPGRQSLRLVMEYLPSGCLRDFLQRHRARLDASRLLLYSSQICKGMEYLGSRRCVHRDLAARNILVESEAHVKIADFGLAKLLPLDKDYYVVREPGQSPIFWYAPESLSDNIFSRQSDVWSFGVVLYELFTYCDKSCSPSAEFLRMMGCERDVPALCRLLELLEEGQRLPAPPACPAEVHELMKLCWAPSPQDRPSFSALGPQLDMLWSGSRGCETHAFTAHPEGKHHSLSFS
# Protocol: as §1
# JNK1 = JNK1 (Homo sapiens, UniProt P45983); test: as above; type: biochemical; details: ATP equal to Km, 30°C
# Protocol: as §1
# JNK3 = JNK3 (Homo sapiens, UniProt P53779); test: as above; type: biochemical; details: ATP equal to Km, 30°C
# Protocol: as §1
# MAPKAP2 = MAPKAP2 (Homo sapiens, UniProt P49137); test: as above; type: biochemical; details: read-out: Ki or IC50 MAPKAP2
# Protocol: as §1
# PIM1 = PIM1 (Homo sapiens, UniProt P11309); test: as above; type: biochemical; details: read-out: Ki or IC50 PIM1
# Protocol: as §1
# SRC = SRC (Homo sapiens, UniProt P12931); test: as above; type: biochemical; details: read-out: Ki or IC50 SRC
# Protocol: as §1
# [1] = baseline cardiovascular and pulmonary parameters one day after ozone or air exposure; type: in vivo, guinea pigs; details: ozone-exposed (2 ppm, 4 h), inhibitor 30 mg/kg ip 1 h before, one day post-exposure, mean ± SEM
# Protocol: (§2) Guinea pigs were exposed to 2 ppm ozone or filtered air for 4 hours as described previously. Physiological measurements, airway inflammation, and histological measurements were made one day after a single ozone exposure.
# (§3) Animals were given 30 mg/kg intraperitoneally of the dual p38 and JNK MAPK inhibitors V-05-013, V-05-014, or V-05-015 (Vertex Pharmaceuticals, Cambridge, MA) one hour before ozone exposure (Figure 1). These compounds were chosen because of their overall kinase selectivity profile. […] Inhibitors were dissolved in 25% DMSO in phosphate buffered saline (PBS). Air exposed control animals were given 25% DMSO in PBS one hour before ozone exposure.
# One day after exposure to ozone, guinea pigs were anesthetized with 1.9 g/kg urethane i.p. (Sigma-Aldrich, St. Louis, MO). This dose produces a deep anesthesia lasting 8–10 hours though no experiments lasted longer than 4 hours.
# Physiological measurements were made as previously described. The jugular veins were cannulated for intravenous administration of drugs and the right carotid artery was cannulated to measure heart rate and blood pressure. Both vagus nerves were cut and distal ends placed on platinum electrodes submerged in liquid paraffin. Animals were tracheostomized, ventilated (1 ml/100 g body weight, 100 breaths per minute) and paralyzed with a constant infusion of succinylcholine (10 µg/kg/min iv, Sigma-Aldrich). Pulmonary inflation pressure was measured at the trachea and bronchoconstriction was measured as the increase in pressure over basal inflation pressure produced by the ventilator.
# [2] = tested on: neuronal M2 muscarinic receptors; test: neuronal M2 muscarinic receptor function (gallamine potentiation of vagally induced bronchoconstriction); type: in vivo, guinea pigs; details: ozone-exposed, 30 mg/kg ip 1 h before ozone, gallamine 0.1–10 mg/kg iv
# Protocol: as §2, §3
# Recovery from administration of intravenous acetylcholine was confirmed by pulmonary inflation pressure and heart rate returning to baseline before measuring M2 muscarinic receptor function (5–10 minutes after the last dose of acetylcholine).
# JNK3, sequence (P53779 whole entry, species assumed): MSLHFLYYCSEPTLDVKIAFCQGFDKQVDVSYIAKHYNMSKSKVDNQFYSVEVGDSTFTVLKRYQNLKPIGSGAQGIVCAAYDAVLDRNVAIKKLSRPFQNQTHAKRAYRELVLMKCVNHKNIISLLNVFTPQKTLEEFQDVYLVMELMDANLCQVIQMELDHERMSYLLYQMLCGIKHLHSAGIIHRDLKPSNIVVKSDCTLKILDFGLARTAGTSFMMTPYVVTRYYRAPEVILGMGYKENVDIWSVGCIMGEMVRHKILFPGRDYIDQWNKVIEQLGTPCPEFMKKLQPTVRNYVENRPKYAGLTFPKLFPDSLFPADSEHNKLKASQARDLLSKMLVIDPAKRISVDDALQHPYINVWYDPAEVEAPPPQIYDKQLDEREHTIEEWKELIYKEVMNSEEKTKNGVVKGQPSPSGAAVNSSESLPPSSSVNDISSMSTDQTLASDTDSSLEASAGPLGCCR
# JNK1, sequence (P45983 whole entry, species assumed): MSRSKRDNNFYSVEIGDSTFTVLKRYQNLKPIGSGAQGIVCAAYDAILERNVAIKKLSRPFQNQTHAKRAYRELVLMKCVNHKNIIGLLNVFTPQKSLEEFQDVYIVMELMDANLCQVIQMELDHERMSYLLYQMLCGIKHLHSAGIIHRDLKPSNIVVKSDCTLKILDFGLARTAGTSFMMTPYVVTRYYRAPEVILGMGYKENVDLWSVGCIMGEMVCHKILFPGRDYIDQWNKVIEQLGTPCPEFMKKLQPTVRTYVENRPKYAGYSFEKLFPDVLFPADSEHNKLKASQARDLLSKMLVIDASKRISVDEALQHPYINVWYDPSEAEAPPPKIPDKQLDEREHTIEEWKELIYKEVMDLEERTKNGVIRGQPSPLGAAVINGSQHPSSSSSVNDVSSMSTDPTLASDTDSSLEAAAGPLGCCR
# IGF1R, sequence (P08069 31-1367, species assumed): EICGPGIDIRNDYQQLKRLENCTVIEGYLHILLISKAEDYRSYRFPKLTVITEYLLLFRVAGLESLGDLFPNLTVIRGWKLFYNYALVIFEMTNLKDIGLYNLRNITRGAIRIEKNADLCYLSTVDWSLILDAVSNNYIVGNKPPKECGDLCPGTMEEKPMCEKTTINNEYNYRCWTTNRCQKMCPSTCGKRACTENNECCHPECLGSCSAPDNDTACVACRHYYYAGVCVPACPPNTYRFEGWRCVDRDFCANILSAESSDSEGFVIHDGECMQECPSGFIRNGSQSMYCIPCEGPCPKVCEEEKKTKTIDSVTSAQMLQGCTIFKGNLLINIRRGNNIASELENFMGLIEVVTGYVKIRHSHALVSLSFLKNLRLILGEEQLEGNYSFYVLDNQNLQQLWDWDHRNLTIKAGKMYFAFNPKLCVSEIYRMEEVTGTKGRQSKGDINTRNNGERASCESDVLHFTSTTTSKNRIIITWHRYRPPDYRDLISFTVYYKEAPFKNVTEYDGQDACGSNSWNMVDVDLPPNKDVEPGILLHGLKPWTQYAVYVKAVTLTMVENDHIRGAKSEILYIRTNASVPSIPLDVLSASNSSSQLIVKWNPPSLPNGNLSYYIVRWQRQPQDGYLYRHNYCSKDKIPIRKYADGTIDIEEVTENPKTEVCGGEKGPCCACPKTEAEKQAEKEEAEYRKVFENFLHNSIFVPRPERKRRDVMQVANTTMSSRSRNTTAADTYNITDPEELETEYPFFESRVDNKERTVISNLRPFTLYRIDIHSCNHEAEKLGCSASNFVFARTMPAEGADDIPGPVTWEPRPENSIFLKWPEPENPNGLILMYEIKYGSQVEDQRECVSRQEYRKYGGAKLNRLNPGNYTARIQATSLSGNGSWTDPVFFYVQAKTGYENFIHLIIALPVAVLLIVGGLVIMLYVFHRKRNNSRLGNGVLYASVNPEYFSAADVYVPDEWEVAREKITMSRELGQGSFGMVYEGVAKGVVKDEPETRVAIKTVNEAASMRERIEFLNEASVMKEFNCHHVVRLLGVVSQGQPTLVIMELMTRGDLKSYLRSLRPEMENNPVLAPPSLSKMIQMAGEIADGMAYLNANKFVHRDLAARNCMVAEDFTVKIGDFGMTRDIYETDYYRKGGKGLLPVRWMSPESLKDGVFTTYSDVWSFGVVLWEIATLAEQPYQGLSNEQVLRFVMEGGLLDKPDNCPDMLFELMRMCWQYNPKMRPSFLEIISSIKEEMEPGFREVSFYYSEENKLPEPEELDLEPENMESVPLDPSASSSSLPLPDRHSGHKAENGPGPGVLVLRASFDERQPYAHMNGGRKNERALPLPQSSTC
# MAPKAP2, sequence (P49137 whole entry): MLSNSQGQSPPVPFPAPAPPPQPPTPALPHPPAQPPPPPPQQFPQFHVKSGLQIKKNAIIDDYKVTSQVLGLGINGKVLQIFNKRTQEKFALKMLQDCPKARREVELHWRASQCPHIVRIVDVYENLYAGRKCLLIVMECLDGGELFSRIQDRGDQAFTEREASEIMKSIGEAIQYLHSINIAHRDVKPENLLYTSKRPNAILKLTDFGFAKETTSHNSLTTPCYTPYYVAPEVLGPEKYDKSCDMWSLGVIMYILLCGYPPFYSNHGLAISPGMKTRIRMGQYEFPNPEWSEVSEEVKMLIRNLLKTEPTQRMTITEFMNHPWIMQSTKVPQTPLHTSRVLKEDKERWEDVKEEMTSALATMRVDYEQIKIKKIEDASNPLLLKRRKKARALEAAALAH
# PIM1, sequence (P11309 whole entry, species assumed): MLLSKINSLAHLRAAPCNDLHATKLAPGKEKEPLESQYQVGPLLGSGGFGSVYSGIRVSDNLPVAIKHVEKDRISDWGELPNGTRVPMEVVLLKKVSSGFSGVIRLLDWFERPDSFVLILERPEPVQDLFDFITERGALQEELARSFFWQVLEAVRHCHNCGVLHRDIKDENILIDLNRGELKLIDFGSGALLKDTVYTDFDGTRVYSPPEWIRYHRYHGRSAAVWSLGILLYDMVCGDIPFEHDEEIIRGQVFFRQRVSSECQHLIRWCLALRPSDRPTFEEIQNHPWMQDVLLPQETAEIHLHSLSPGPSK
# SRC, sequence (P12931 whole entry, species assumed): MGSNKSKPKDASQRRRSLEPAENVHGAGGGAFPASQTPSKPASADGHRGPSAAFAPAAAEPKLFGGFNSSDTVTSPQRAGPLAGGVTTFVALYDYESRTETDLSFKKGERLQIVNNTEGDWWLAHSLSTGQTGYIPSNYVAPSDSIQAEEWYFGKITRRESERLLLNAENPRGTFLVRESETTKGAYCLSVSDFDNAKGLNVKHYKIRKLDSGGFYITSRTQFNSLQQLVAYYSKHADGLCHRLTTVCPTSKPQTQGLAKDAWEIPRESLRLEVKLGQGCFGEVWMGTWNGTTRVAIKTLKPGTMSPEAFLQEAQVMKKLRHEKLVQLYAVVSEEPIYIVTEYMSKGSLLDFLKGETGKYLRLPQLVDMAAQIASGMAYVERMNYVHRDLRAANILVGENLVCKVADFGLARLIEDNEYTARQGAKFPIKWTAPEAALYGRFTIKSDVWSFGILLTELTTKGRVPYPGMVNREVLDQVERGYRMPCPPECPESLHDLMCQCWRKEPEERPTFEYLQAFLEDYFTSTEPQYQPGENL
Ki (IGF1R) [µM],Ki (JAK3) [µM],Ki (JNK1) [µM],Ki (JNK3) [µM],Ki (MAPKAP2) [µM],Ki (PIM1) [µM],Ki (SRC) [µM],SMILES,Pulmonary Inflation Pressure (baseline) [1],effect on ozone-induced M2 receptor dysfunction [2]
> 1,> 1,0.17,0.005,> 1,> 1,> 1,OC1CCN(Cc2onc(-c3ccc(F)cc3)c2-c2ccnc(NC3CCCCC3)n2)CC1 [V-05-013],190±15 ^‡ mmH2O,partially prevented M2 receptor dysfunction
> 1,> 1,0.3,0.01,> 1,> 1,> 1,OC[C@@H]1CCCN1Cc1onc(-c2ccc(F)cc2)c1-c1ccnc(NC2CCCCC2)n1 [V-05-014],225±5 mmH2O,completely protected M2 receptor function
> 1,> 1,0.12,0.008,> 1,> 1,> 1,Fc1ccc(-c2noc(CN3CCCCC3)c2-c2ccnc(NC3CCCCC3)n2)cc1 [V-05-015],213±7 mmH2O,completely protected M2 receptor function
